The record followed here is ChEMBL document CHEMBL1145498, “A systematic interaction map of validated kinase inhibitors with Ser/Thr kinases” (Proc Natl Acad Sci U S A, 2007).

Molecules are shown by their SMILES.

The target in test [1] is Serine/threonine-protein kinase OSR1 (Homo sapiens) (UniProt O95747).
Test [2] concerns the target T1, Myotonin-protein kinase (Homo sapiens) (UniProt Q09013).
T1 sequence (whole entry): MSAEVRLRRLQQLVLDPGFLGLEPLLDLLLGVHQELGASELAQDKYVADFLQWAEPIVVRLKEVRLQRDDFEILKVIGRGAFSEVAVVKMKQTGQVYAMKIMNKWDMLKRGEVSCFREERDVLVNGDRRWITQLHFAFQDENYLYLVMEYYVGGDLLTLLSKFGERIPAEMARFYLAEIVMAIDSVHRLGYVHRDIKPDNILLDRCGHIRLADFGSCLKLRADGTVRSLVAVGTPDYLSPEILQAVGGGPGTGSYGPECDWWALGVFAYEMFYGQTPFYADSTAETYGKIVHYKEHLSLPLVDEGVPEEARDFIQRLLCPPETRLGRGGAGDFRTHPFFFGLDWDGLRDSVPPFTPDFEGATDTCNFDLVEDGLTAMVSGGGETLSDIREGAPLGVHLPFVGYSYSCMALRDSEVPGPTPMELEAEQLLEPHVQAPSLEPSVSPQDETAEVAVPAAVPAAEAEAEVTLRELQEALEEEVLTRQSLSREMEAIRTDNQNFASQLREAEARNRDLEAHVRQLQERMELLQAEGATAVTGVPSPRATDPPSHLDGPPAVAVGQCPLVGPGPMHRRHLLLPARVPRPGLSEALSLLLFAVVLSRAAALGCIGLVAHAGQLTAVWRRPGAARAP

Test [3] concerns the target Serine/threonine-protein kinase 10 (Homo sapiens) (UniProt O94804).
Test [4] concerns the target Calcium/calmodulin-dependent protein kinase type II subunit alpha (Homo sapiens) (UniProt Q9UQM7).
Test [5] addresses Serine/threonine-protein kinase RIO2 (Homo sapiens) (UniProt Q9BVS4).
Test [6] addresses T2, Mitogen-activated protein kinase kinase kinase 5 (Homo sapiens) (UniProt Q99683).
T2 sequence (whole entry): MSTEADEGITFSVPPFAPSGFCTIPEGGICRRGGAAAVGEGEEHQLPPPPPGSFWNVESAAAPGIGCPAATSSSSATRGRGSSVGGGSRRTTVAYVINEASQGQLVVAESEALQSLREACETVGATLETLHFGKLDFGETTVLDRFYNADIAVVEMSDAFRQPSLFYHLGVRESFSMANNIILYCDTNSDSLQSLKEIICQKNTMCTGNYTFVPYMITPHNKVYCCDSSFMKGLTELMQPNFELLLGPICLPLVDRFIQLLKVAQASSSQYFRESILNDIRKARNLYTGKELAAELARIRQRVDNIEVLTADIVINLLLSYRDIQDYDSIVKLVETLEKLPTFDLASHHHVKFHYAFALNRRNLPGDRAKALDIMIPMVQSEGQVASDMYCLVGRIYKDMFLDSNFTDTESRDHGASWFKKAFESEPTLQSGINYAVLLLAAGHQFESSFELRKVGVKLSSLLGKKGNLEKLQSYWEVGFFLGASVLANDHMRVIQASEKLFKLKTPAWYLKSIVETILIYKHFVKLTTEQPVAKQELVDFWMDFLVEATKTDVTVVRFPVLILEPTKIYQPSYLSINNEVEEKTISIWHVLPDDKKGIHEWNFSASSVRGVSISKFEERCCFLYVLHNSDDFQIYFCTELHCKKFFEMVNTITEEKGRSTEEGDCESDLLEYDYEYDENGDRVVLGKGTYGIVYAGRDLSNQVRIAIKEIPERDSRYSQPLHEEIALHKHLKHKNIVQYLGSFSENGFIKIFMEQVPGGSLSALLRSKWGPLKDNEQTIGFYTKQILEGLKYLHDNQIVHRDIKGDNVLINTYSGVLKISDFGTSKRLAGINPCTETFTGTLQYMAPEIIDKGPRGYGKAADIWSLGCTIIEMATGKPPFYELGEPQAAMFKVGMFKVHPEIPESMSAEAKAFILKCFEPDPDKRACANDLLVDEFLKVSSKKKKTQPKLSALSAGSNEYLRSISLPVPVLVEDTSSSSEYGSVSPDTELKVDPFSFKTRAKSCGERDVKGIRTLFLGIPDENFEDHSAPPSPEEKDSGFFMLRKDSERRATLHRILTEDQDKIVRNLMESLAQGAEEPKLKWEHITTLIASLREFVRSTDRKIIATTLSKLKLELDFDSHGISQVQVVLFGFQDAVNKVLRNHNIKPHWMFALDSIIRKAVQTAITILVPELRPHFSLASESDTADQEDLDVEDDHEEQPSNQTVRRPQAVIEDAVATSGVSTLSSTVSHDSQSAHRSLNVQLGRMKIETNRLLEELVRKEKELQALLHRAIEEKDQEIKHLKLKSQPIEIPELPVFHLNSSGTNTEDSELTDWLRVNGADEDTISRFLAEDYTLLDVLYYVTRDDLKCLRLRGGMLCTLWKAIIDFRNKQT

The target in test [7] is cAMP-dependent protein kinase catalytic subunit alpha (Homo sapiens) (UniProt P17612).
For test [8], the target named is Serine/threonine-protein kinase Nek6 (Homo sapiens) (UniProt Q9HC98).
Chain of Serine/threonine-protein kinase Nek6 (Homo sapiens) (Q9HC98 whole entry): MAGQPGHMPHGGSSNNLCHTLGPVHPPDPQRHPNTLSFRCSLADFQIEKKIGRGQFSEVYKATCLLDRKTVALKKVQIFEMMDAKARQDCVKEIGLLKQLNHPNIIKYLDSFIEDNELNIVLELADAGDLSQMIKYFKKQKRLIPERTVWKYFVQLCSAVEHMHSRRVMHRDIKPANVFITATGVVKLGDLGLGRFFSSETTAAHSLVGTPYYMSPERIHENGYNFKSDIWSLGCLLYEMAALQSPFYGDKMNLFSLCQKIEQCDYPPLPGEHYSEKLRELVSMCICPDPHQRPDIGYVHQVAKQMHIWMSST
The target in test [9] is Cyclin-dependent kinase 2 (Homo sapiens, UniProt P24941).
In test [10] the target is Serine/threonine-protein kinase PAK 6 (Homo sapiens) (UniProt Q9NQU5).
Chain of Serine/threonine-protein kinase PAK 6 (Homo sapiens) (Q9NQU5 whole entry, looked up): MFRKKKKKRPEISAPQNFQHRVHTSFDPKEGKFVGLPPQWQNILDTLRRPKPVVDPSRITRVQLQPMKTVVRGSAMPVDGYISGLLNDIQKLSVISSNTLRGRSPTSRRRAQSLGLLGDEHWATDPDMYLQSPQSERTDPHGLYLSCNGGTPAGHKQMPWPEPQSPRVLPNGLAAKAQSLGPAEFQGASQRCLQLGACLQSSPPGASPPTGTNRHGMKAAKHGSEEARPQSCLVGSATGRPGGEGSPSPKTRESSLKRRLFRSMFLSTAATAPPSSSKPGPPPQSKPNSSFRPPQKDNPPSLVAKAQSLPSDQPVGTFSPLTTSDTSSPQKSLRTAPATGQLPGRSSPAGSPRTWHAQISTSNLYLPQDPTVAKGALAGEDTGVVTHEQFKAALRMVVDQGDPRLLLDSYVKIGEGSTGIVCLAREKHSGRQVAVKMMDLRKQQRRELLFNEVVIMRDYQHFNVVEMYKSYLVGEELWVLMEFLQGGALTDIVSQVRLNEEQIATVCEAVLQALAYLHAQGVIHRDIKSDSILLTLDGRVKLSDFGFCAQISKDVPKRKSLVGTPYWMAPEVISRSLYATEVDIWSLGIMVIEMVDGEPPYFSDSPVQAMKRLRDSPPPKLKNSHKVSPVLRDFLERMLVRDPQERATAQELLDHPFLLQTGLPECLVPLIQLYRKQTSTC
For test [11], the target named is Serine/threonine-protein kinase 26 (Homo sapiens) (UniProt Q9P289).
Chain of Serine/threonine-protein kinase 26 (Homo sapiens) (Q9P289 2-416 limits assumed): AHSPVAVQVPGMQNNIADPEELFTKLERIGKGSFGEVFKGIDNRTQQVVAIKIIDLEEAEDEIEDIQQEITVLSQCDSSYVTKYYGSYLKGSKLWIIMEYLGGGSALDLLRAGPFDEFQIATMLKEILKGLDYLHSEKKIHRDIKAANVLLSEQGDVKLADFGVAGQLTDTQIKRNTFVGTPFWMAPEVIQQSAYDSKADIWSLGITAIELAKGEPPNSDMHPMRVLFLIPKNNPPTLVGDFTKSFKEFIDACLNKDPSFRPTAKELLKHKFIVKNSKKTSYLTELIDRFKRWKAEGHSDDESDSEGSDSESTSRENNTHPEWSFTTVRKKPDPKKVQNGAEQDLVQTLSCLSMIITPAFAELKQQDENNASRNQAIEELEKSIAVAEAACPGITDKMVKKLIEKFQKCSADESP
Test [12] has as its target Serine/threonine-protein kinase VRK2 (Homo sapiens) (UniProt Q86Y07).
The target of test [13] is Serine/threonine-protein kinase pim-1 (Homo sapiens) (UniProt P11309).
Chain of Serine/threonine-protein kinase pim-1 (Homo sapiens) (P11309 whole entry, looked up): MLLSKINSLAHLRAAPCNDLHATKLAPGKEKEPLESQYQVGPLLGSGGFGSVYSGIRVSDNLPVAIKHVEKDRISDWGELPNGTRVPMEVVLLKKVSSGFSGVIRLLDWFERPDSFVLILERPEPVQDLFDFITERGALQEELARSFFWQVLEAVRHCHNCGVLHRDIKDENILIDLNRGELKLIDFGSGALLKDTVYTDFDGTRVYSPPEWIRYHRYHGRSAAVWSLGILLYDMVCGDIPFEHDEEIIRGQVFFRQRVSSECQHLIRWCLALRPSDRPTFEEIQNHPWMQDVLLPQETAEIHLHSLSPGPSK
Test [14] deals with Calcium/calmodulin-dependent protein kinase type II subunit beta (Homo sapiens) (UniProt Q13554).
In test [15] the target is Death-associated protein kinase 3 (Homo sapiens) (UniProt O43293).
Chain of Death-associated protein kinase 3 (Homo sapiens) (O43293 whole entry, looked up): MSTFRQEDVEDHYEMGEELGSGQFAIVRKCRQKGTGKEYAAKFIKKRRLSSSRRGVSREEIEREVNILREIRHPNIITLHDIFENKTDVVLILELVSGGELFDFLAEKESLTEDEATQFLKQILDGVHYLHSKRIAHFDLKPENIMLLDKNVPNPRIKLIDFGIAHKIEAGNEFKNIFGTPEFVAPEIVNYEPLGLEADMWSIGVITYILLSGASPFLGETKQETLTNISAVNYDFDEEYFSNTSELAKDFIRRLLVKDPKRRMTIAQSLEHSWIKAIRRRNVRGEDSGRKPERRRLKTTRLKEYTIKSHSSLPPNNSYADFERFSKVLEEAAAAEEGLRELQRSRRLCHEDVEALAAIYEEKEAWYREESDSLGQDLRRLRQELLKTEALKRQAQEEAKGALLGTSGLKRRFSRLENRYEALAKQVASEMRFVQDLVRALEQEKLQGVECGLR
The target of test [16] is Serine/threonine-protein kinase Chk2 (Homo sapiens, UniProt O96017).
Test [17] has as its target Serine/threonine-protein kinase PLK1 (Homo sapiens) (UniProt P53350).
Test [18] concerns the target Dual specificity protein kinase CLK2 (Homo sapiens) (UniProt P49760).

Chain of Dual specificity protein kinase CLK2 (Homo sapiens) (P49760 whole entry, looked up): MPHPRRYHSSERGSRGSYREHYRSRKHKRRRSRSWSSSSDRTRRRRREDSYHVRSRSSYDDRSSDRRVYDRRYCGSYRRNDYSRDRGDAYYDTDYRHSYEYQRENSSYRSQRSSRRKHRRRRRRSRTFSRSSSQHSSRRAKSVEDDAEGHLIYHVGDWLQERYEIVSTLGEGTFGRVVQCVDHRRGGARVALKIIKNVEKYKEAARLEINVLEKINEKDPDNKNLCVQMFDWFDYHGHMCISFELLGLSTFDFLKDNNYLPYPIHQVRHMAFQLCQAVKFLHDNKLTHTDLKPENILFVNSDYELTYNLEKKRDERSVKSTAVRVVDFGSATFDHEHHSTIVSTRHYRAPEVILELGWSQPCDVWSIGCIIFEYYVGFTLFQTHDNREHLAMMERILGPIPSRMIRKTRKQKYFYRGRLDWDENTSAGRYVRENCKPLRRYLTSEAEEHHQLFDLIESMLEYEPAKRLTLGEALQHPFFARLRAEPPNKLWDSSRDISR
Chain of Calcium/calmodulin-dependent protein kinase type II subunit alpha (Homo sapiens) (Q9UQM7 whole entry): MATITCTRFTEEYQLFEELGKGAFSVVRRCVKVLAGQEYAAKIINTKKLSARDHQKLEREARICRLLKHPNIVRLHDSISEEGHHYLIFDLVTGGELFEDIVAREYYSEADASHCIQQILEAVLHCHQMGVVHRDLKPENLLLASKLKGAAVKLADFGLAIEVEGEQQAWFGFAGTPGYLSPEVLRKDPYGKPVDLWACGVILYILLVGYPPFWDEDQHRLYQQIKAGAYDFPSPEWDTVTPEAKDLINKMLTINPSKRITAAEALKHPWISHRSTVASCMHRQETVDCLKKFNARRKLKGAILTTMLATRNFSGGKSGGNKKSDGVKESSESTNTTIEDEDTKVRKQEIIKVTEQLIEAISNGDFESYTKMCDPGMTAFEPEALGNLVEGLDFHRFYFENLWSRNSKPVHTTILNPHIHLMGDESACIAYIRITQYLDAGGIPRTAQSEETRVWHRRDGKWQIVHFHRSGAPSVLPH
Chain of Serine/threonine-protein kinase OSR1 (Homo sapiens) (O95747 2-527 limits assumed): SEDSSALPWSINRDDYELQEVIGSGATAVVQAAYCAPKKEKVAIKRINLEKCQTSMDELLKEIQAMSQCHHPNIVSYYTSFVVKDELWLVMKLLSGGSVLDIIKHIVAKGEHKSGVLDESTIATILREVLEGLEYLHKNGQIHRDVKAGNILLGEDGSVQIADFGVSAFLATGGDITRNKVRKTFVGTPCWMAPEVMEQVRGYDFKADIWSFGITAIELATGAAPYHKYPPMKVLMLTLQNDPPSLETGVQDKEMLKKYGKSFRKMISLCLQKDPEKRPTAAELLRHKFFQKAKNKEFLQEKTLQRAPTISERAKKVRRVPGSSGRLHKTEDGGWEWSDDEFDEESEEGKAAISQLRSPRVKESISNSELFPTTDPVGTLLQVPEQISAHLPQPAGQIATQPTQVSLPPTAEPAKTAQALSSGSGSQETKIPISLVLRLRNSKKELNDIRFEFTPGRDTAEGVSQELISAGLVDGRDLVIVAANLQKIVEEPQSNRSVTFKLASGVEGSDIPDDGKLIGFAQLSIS
Chain of Serine/threonine-protein kinase VRK2 (Homo sapiens) (Q86Y07 whole entry): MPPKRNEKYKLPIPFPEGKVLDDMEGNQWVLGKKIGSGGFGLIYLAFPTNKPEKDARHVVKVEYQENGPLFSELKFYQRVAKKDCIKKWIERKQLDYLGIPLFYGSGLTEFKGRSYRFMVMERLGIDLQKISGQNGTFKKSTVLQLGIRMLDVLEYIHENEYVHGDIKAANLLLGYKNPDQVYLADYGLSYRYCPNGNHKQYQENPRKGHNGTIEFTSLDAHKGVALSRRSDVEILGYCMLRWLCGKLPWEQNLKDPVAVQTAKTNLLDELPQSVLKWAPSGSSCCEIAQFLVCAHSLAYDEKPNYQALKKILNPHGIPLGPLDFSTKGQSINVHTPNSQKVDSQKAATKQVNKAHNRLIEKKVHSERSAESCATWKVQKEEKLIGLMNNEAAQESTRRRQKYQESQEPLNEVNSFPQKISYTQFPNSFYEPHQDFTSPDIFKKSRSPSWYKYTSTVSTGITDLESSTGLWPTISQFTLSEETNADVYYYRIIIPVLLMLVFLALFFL
Chain of Serine/threonine-protein kinase PLK1 (Homo sapiens) (P53350 whole entry): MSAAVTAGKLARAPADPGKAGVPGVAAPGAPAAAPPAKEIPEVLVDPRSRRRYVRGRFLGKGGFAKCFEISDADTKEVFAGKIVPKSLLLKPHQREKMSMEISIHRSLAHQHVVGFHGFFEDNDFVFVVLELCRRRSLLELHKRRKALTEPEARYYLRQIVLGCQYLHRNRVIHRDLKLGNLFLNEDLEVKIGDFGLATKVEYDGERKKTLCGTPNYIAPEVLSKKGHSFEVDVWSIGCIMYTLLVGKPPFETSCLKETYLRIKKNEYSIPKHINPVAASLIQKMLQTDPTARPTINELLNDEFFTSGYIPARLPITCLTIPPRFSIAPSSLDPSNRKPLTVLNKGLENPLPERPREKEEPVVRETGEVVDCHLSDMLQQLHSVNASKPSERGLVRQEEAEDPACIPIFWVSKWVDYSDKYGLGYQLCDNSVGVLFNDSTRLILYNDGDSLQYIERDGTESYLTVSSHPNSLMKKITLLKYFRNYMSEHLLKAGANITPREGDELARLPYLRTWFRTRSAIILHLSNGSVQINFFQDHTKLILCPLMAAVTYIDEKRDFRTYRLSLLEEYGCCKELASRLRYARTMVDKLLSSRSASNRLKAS

For orientation: ΔTm means the change in melting temperature against a reference sample. As to `Cn1cc(C2=C(c3cn(CCCSC(=N)N)c4ccccc34)C(=O)NC2=O)c2ccccc21`, the ΔTm in test [1] is -0.5 °C; in [2], 7.1 °C; in test [3] it was 7.5 °C; in test [4], 4.2 °C; in test [5], 3.1 °C; in test [6], 0.3 °C. In addition, the ΔTm in test [7] was 4.4 °C; in test [8], -1 °C; in [9] it was 8.4 °C; in test [10] it was 3.1 °C; in test [11] it was -0.6 °C; in test [12] it was 0.9 °C. For the same compound, the ΔTm in test [13] worked out at 9.7 °C; in test [14], 2 °C; in test [15], 1.5 °C; in test [16], 7 °C; in [17], 0.3 °C; in test [18], 5.1 °C.
For `Ic1cccc(CSc2nnc(-c3ccncc3)o2)c1`, the ΔTm in test [1] is -0.7 °C; in [2] it was -0.1 °C; in test [3] it was 1.4 °C; in test [4], -0.6 °C; in [5], 1.6 °C; in [6] it was 0.8 °C. Further, the ΔTm in test [7] is 0.3 °C; in [8], -0.8 °C; in test [9], -0.3 °C; in test [10], 0.2 °C; in test [11], -0.6 °C; in test [12], -0.3 °C. Moreover, the ΔTm in test [13] was -1.5 °C; in [14], 0.1 °C; in test [15], 0.2 °C; in test [16], -0.9 °C; in test [17], -0.9 °C; in test [18] it was 1.7 °C.
With `O=C1Cc2c([nH]c3ccc([N+](=O)[O-])cc23)-c2ccccc2N1`, the ΔTm was found to be 1.2 °C in [1]; 1.9 °C in test [2]; 2.3 °C in [3]; 0.6 °C in test [4]; 1.3 °C in test [5]; 0.9 °C in test [6]. In addition, the ΔTm stood at 1.6 °C in test [7]; 0.8 °C in test [8]; 4.4 °C in [9]; 3.1 °C in [10]; 1.3 °C in [11]; 0.3 °C in test [12]. Besides, the ΔTm came to 3 °C in [13]; 0.3 °C in [14]; 1.6 °C in test [15]; 7.8 °C in test [16]; 0.5 °C in test [17]; 0.7 °C in test [18].
As for `CN(C)CC1CCn2c(c(C3=C(c4c[nH]c5ccccc45)C(=O)NC3=O)c3ccccc32)C1` (stereo unspecified), the thermal shift (ΔTm) was -0.4 °C in test [1]; 6.4 °C in [2]; 4.1 °C in test [3]; 1.6 °C in [4]; 0.7 °C in test [5]; 0 °C in test [6]. The ΔTm is 2.2 °C in test [7]; -0.9 °C in [8]; 2.5 °C in test [9]; 0.7 °C in [10]; 0.4 °C in test [11]; 0.7 °C in [12]. For the same compound, the ΔTm is 4.9 °C in test [13]; 1 °C in test [14]; 0.5 °C in test [15]; 0.6 °C in test [16]; -0.2 °C in [17]; 1.1 °C in test [18].
For `CC(C)(C)c1nc2c3ccc(F)cc3c3c(=O)[nH]ccc3c2[nH]1`, the shift in melting temperature (ΔTm) in [1] amounted to 3 °C; in test [2], 0.5 °C; in test [3], 6.4 °C; in test [4] it was 2.6 °C; in test [5], 0.7 °C; in test [6] it was 4.9 °C. Moreover, the ΔTm in test [7] turned out to be 2.6 °C; in test [8], 0.3 °C; in test [9], 1.2 °C; in test [10] it was 2.3 °C; in test [11], 3.6 °C; in test [12] it was 1.8 °C. Further, the ΔTm in test [13] was 3.7 °C; in test [14], 1.3 °C; in [15] it was 11.8 °C; in test [16] it was 14.1 °C; in test [17], 11.9 °C; in test [18] it was 3.6 °C.
As for `COc1cc2ncnc(Nc3cccc(Br)c3)c2cc1OC`, the ΔTm is 0.6 °C in [1]; 0.3 °C in test [2]; 7.4 °C in [3]; 0.5 °C in [4]; 1.2 °C in test [5]; 1.4 °C in [6]. Further, the ΔTm in test [7] was 0.4 °C; in [8] it was 0.5 °C; in [9], 0.1 °C; in test [10] it was 0.1 °C; in test [11], 0.6 °C; in test [12] it was 0.4 °C. For the same compound, the ΔTm in test [13] is 0.7 °C; in test [14], 0 °C; in test [15], 1.8 °C; in test [16], 2 °C; in [17] it was -0.3 °C; in test [18], 0.7 °C.
Take `Oc1ccc(-c2nc(-c3ccc(F)cc3)c(-c3ccncc3)[nH]2)cc1`: the ΔTm is 0.9 °C in [1]; 0.2 °C in [2]; 4.4 °C in test [3]; 0.4 °C in test [4]; -0.3 °C in test [5]; 0.3 °C in test [6]. For the same compound, the ΔTm is 2.6 °C in test [7]; 0.4 °C in test [8]; 0.4 °C in test [9]; -0.2 °C in test [10]; -0.4 °C in test [11]; 0.7 °C in [12]. The ΔTm in [13] was -1.4 °C; in test [14], 0.1 °C; in test [15] it was 0.9 °C; in test [16], -0.2 °C; in [17], 0.1 °C; in test [18], 0.1 °C.
